Experiments:
Type in all cases: nucleic-acid assay
Nucleic Acid [1] = test: Binding affinity to 2-AP labeled mutant RNA3 by fluorescence binding assay
Nucleic Acid [2] = test: Binding affinity to 2-AP labeled mutant RNA7 by fluorescence binding assay
Nucleic Acid [3] = test: Binding affinity to 2-AP labeled mutant RNA5 by fluorescence binding assay
Nucleic Acid [4] = test: Binding affinity to 2-AP labeled RNA1 by fluorescence binding assay
Nucleic Acid [5] = test: Binding affinity to 2-AP labeled mutant RNA6 by fluorescence binding assay
Nucleic Acid [6] = test: Binding affinity to 2-AP labeled mutant RNA8 by fluorescence binding assay
Nucleic Acid [7] = test: Binding affinity to 2-AP labeled mutant RNA4 by fluorescence binding assay
Nucleic Acid [8] = test: Binding affinity to 2-AP labeled mutant RNA2 by fluorescence binding assay

Row | Compound | Kd (Nucleic Acid [1]) [nM] | Kd (Nucleic Acid [2]) [nM] | Kd (Nucleic Acid [3]) [nM] | Kd (Nucleic Acid [4]) [nM] | Kd (Nucleic Acid [5]) [nM] | Kd (Nucleic Acid [6]) [nM] | Kd (Nucleic Acid [7]) [nM] | Kd (Nucleic Acid [8]) [nM]
1 | NC[C@@H]1O[C@H](O[C@H]2[C@@H](O)[C@H](O[C@@H]3[C@@H](O)[C@H](N)C[C@H](N)[C@H]3O[C@H]3O[C@H](CN)[C@@H](O)[C@H](O)[C@H]3N)O[C@@H]2CO)[C@H](N)[C@@H](O)[C@@H]1O [FRAMYCETIN] | 1100 | 1100 | 1100 | 1500 |  |  |  | 
2 | CO[C@@H]1C[C@H](NC(=O)[C@@H]2C[C@H](O[C@H]3O[C@H](CN)[C@@H](O)[C@H](O)[C@H]3N)[C@@H](N)C[C@H]2N)[C@@H](N)C[C@H]1N | 2200 | 2900 | 500 | 2200 | 1400 | 1400 | 1700 | 1500
